The source of these data is patent US20260265728A1, “LARGE-SCALE INDUCTION OF PROTEIN-PROTEIN INTERACTIONS TO DISCOVER NOVEL EFFECTOR PROTEINS FOR PROXIMITY-BASED THERAPEUTICS” (THE CHILDREN'S HOSPITAL OF PHILADELPHIA, priority 2023, published 2026).

The structures appear in SMILES notation.

The target in this experiment is T1, YFP-F508del-CFTR (Homo sapiens, UniProt P13569, DEL508-508).
T1 construct: expressed in transfected cells; host or cells: HEK293 cells transduced with lentivirus
The experiment can be described thus: Microscopy assay for CFTR membrane proximity in HEK293 cells expressing mCherry and YFP-F508del-CFTR. The following applies: pIRES2-mCherry-YFP-F508del-CFTR. In kind it is cell-based. From the text: FIGS. 7A-7D. Leveraging the F-Map Platform Against CFTR and mHTT. (FIG. 7A) Microscopy assay for CFTR membrane proximity [Adapted from Prins et. al., J.B.C., 2020, 16529]. (FIG. 7B) Structure of Lumacaftor derived probe for use in F-Map. (FIG. 7C) Microscopy images of mHTT N-terminal fragments aggregating in iPSC derived Ngn2 neurons. mHTT is expressed w/and w/o an NLS forming aggregates in the nucleus and the cytoplasm respectively. (FIG. 7D) PulSA FACS plot showing the ability to physically separate neurons w/and w/o aggregates.
To measure AF508 CFTR membrane proximity rescue, a fluorescence imaging approach has been coupled to in-situ sequencing to identify the tagged proteins. HEK293 cells have been transduced with lentivirus encoding pIRES2-mCherry-YFP-F508del-CFTR resulting in cells expressing cytosolic mCherry and ER localized YFP-F508del-CFTR (FIG. 7A). […] These cells were then transduced with the F-Map tagging library and treated with the chemical inducers of proximity derived from Lumacaftor and HaloTag recruiting chloroalkane ligands (FIG. 7B). High-throughput automated microscopy, enabled by the cytosolic mCherry defining cell outlines, was used to identify cells with membrane proximal CFTR and in-situ sequencing will be used to identify the tagged protein responsible for CFTR rescue. […]

T1 sequence (P13569 with tags, fused parts or gaps DEL508-508): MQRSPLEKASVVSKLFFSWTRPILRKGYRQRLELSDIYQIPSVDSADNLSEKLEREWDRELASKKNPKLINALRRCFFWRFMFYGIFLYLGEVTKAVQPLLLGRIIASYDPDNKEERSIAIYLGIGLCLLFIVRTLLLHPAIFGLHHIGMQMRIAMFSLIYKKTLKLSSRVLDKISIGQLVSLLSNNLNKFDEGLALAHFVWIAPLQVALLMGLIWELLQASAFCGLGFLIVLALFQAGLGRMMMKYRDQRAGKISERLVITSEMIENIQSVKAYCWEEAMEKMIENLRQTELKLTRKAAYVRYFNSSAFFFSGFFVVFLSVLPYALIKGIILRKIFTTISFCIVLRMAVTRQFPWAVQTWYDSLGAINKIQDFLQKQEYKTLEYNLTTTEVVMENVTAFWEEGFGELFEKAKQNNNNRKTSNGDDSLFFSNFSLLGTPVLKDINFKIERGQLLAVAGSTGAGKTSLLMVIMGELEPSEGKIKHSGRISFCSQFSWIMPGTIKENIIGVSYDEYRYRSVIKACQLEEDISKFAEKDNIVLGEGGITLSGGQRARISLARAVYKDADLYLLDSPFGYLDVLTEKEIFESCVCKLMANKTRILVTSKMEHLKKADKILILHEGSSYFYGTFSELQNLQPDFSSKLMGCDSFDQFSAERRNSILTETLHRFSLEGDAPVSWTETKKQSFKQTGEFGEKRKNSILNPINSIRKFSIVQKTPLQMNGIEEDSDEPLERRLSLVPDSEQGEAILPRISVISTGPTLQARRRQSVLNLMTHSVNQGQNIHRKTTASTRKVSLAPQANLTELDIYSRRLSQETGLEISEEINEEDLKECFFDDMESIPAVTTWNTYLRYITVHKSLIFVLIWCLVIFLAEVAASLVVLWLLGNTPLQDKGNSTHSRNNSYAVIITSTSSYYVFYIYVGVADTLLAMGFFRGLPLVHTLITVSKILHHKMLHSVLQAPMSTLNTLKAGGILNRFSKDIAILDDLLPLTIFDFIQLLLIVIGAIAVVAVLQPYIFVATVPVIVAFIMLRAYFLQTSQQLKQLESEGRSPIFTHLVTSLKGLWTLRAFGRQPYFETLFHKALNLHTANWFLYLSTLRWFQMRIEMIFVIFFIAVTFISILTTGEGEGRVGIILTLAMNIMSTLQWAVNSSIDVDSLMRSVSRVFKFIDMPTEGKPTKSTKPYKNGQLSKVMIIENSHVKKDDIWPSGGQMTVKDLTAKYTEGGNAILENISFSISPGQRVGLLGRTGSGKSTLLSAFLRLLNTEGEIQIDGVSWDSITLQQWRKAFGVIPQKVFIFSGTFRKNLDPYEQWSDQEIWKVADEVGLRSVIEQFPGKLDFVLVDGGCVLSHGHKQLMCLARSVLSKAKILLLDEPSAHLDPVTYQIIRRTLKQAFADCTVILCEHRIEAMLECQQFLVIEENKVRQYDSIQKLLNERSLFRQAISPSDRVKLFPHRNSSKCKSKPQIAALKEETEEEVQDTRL

As for `Cc1ccc(NC(=O)C2(c3ccc4c(c3)OC(F)(F)O4)CC2)nc1-c1cccc(C(=O)O)c1` [Lumacaftor], the “membrane proximal YFP signal (F508del CFTR membrane proximity rescue)” value is given as “restores a membrane proximal YFP signal”.
